In PubChem BioAssay (NCI):
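How tested: cells in 96-well plates exposed to compound for 48 hours at five concentrations. Abbreviation: GI50, concentration required for 50% inhibition of growth. TGI denotes the concentration required for complete inhibition of growth.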

Columns and labels:
Assay in all cases: growth of human tumour cells (NCI), 48 h
[1] = system: CCRF-CEM leukemia
[2] = system: NCI-H522 lung
[3] = system: SF-295 CNS
[4] = system: NCI-H460 lung
[5] = system: SNB-75 CNS
[6] = system: COLO 205 colon
[7] = system: NCI/ADR-RES ovarian
[8] = system: SF-268 CNS
[9] = system: SR leukemia
[10] = system: OVCAR-8 ovarian
[11] = system: OVCAR-3 ovarian
[12] = system: HL-60(TB) leukemia
[13] = system: RXF 393 renal
[14] = system: SW-620 colon
[15] = system: HCT-116 colon
[16] = system: UACC-62 melanoma
[17] = system: RPMI-8226 leukemia
[18] = system: NCI-H226 lung
[19] = system: MCF7 breast
[20] = system: 786-0 renal
[21] = system: MDA-MB-435
[22] = system: SK-MEL-2 melanoma
[23] = system: MALME-3M melanoma
[24] = system: HS 578T breast
[25] = system: EKVX NSCLC
[26] = system: KM12 colon
[27] = system: TK-10 renal
[28] = system: MOLT-4 leukemia
[29] = system: A498 renal
[30] = system: LOX IMVI melanoma
[31] = system: BT-549 breast
[32] = system: IGROV1 ovarian
[33] = system: T-47D breast
[34] = system: PC-3 prostate
[35] = system: SF-539 CNS
[36] = system: A549 NSCLC
[37] = system: SN12C renal
[38] = system: U251 CNS
[39] = system: ACHN renal
[40] = system: OVCAR-5 ovarian
[41] = system: SK-MEL-5 melanoma
[42] = system: M14 melanoma
[43] = system: HCT-15 colon
[44] = system: K-562 leukemia
[45] = system: SNB-19 CNS
[46] = system: UACC-257 melanoma
[47] = system: OVCAR-4 ovarian
[48] = system: DU-145 prostate
[49] = system: UO-31 renal
[50] = system: HT29 colon
[51] = system: SK-MEL-28 melanoma
[52] = system: MDA-MB-231 breast
[53] = system: SK-OV-3 ovarian
[54] = system: CAKI-1 renal
[55] = system: HOP-92 NSCLC
[56] = system: HCC-2998 colon
[57] = system: HOP-62 NSCLC
[58] = system: NCI-H23 lung

`O=C(NNc1nc2cc(F)ccc2n2cccc12)c1ccncn1` was tested, and the GI50 [1] was 32.7 nM, the TGI [1] was 428 nM and the GI50 [2] was 429 nM. It also gave a TGI [2] of over 6940 nM, a GI50 [3] of 105 nM and a TGI [3] of 6750 nM. The GI50 [4] was 76.4 nM, the TGI [4] was over 7440 nM and the GI50 [5] was 316 nM. For the same molecule, the TGI [5] was over 25800 nM, the GI50 [6] was 272 nM and the TGI [6] was over 13500 nM. For the same molecule, the GI50 [7] was 242 nM, the TGI [7] was 9350 nM and the GI50 [8] was 234 nM. It also gave a TGI [8] of over 30000 nM, a GI50 [9] of 71.1 nM and a GI50 [10] of 277 nM. For the same molecule, the TGI [10] was over 28400 nM, the GI50 [11] was 191 nM and the TGI [11] was over 7020 nM. For the same molecule, the GI50 [12] was 293 nM, the GI50 [13] was 612 nM and the TGI [13] was 3070 nM. For the same molecule, the GI50 [14] was 284 nM, the TGI [14] was over 24100 nM and the GI50 [15] was 153 nM. For the same molecule, the TGI [15] was over 11000 nM, the GI50 [16] was 255 nM and the TGI [16] was 2490 nM. For the same molecule, the GI50 [17] was 242 nM, the TGI [17] was 2300 nM and the GI50 [18] was 548 nM. The TGI [18] was 10300 nM, the GI50 [19] was 270 nM and the TGI [19] was over 15300 nM. For the same molecule, the GI50 [20] was 412 nM, the TGI [20] was over 15700 nM and the GI50 [21] was 1170 nM. It also gave a TGI [21] of over 30000 nM, a GI50 [22] of 1130 nM and a TGI [22] of over 17000 nM. It also gave a GI50 [23] of 910 nM, a TGI [23] of over 21200 nM and a GI50 [24] of 1810 nM. The TGI [24] was over 24900 nM, the GI50 [25] was 234 nM and the TGI [25] was over 16100 nM. It also gave a GI50 [26] of 278 nM, a TGI [26] of over 22500 nM and a GI50 [27] of 361 nM. For the same molecule, the TGI [27] was over 19000 nM, the GI50 [28] was 109 nM and the GI50 [29] was 745 nM. The TGI [29] was 3730 nM, the GI50 [30] was 168 nM and the TGI [30] was over 9230 nM. The GI50 [31] was 841 nM, the TGI [31] was over 21300 nM and the GI50 [32] was 211 nM. For the same molecule, the TGI [32] was over 30000 nM, the GI50 [33] was 301 nM and the TGI [33] was over 18300 nM. The GI50 [34] was 183 nM, the TGI [34] was 13600 nM and the GI50 [35] was 435 nM. The TGI [35] was over 9300 nM, the GI50 [36] was 253 nM and the TGI [36] was over 30000 nM. It also gave a GI50 [37] of 564 nM, a TGI [37] of over 30000 nM and a GI50 [38] of 163 nM. It also gave a TGI [38] of over 30000 nM, a GI50 [39] of 179 nM and a TGI [39] of over 30000 nM. The GI50 [40] was 1300 nM, the TGI [40] was over 30000 nM and the GI50 [41] was 398 nM. For the same molecule, the TGI [41] was 5410 nM, the GI50 [42] was 255 nM and the TGI [42] was over 11000 nM. It also gave a GI50 [43] of 70.4 nM, a TGI [43] of over 20200 nM and a GI50 [44] of 176 nM. The TGI [44] was over 9890 nM, the GI50 [45] was 396 nM and the TGI [45] was over 30000 nM. It also gave a GI50 [46] of 712 nM, a TGI [46] of 8250 nM and a GI50 [47] of 162 nM. The TGI [47] was over 8250 nM, the GI50 [48] was 348 nM and the TGI [48] was over 23600 nM. For the same molecule, the GI50 [49] was 85.6 nM, the TGI [49] was 4180 nM and the GI50 [50] was 354 nM. The TGI [50] was over 13500 nM, the GI50 [51] was 567 nM and the TGI [51] was over 30000 nM. For the same molecule, the GI50 [52] was 766 nM, the TGI [52] was over 30000 nM and the GI50 [53] was 363 nM. For the same molecule, the TGI [53] was 14000 nM, the GI50 [54] was 295 nM and the TGI [54] was over 30000 nM. For the same molecule, the GI50 [55] was 287 nM, the TGI [55] was 11700 nM and the GI50 [56] was 738 nM. The TGI [56] was over 23100 nM, the GI50 [57] was 94.1 nM and the TGI [57] was 9120 nM. For the same molecule, the GI50 [58] was 437 nM and the TGI [58] was over 30000 nM.
